According to PubChem BioAssay AID2060509 (Molecular Pharmacology Branch, DTP, NCI, 2025):

Test system: 485176-168-R4-J1-PDC spheroids with HUVEC/MSC, viability
Assay: Anticancer human tumor 485176-168-R4-J1-PDC patient-derived pancreatic adenocarcinoma cell line growth inhibition [GQUAD]
Conditions: for IC50: curve of first compound; for viability, T/C: stronger effect = lower value; active means viability on the fitted dose curve at most 10% of control; inactive means the rest
How it was run: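 Tumor cells were grown as complex spheroids with HUVEC endothelial cells and mesenchymal stem cells as stroma. G-quadruplex stabilizers were combined with targeted agents over half-log dilutions from near the clinical Cmax, or from 10 microM.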

[1] = second compound 0.0316 µM, first compound 0.0316 µM
[2] = second compound 0.0316 µM, first compound 0.1 µM
[3] = second compound 0.0316 µM, first compound 0.316 µM
[4] = second compound 0.0316 µM, first compound 1 µM
[5] = second compound 0.0316 µM, first compound 3.16 µM
[6] = second compound 0.0316 µM, first compound 10 µM
[7] = second compound 0.1 µM, first compound 0.0316 µM
[8] = second compound 0.1 µM, first compound 0.1 µM
[9] = second compound 0.1 µM, first compound 0.316 µM
[10] = second compound 0.1 µM, first compound 1 µM
[11] = second compound 0.1 µM, first compound 3.16 µM
[12] = second compound 0.1 µM, first compound 10 µM
[13] = second compound 0.316 µM, first compound 0.0316 µM
[14] = second compound 0.316 µM, first compound 0.1 µM
[15] = second compound 0.316 µM, first compound 0.316 µM
[16] = second compound 0.316 µM, first compound 1 µM
[17] = second compound 0.316 µM, first compound 3.16 µM
[18] = second compound 0.316 µM, first compound 10 µM
[19] = second compound 1 µM, first compound 0.0316 µM
[20] = second compound 1 µM, first compound 0.1 µM
[21] = second compound 1 µM, first compound 0.316 µM
[22] = second compound 1 µM, first compound 1 µM
[23] = second compound 1 µM, first compound 3.16 µM
[24] = second compound 1 µM, first compound 10 µM
[25] = second compound 3.16 µM, first compound 0.0316 µM
[26] = second compound 3.16 µM, first compound 0.1 µM
[27] = second compound 3.16 µM, first compound 0.316 µM
[28] = second compound 3.16 µM, first compound 1 µM
[29] = second compound 3.16 µM, first compound 3.16 µM
[30] = second compound 3.16 µM, first compound 10 µM
[31] = second compound 10 µM, first compound 0.0316 µM
[32] = second compound 10 µM, first compound 0.1 µM
[33] = second compound 10 µM, first compound 0.316 µM
[34] = second compound 10 µM, first compound 1 µM
[35] = second compound 10 µM, first compound 3.16 µM
[36] = second compound 10 µM, first compound 10 µM
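Further: spheroids exposed to compounds for seven days before readout.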
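Wherever viability, T/C is given: percent viability relative to DMSO vehicle control wells as 100%.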

CC1COCCN1c1cc(C2(O)CC3CCC(C2)O3)c2cnn(-c3ccn[nH]3)c2n1 (centres undefined) + Cc1[nH]c2ccc(F)cc2c1-c1nc2c3cccnc3c3ncccc3c2[nH]1
67.9 nM: IC50 (second compound 0.1 µM)
46.6 nM: IC50 (second compound 3.16 µM)
118 nM: IC50 (second compound 0.316 µM)
67.5 nM: IC50 (second compound 1 µM)
59.9 nM: IC50 (second compound 10 µM)
inactive: viability, T/C [1] 67.4% | viability, T/C [2] 43% | viability, T/C [3] 17.3% | viability, T/C [4] 10.1% | viability, T/C [7] 66.5% | viability, T/C [8] 41.6% | viability, T/C [9] 14.1% | viability, T/C [13] 56.8% | viability, T/C [14] 55.5% | viability, T/C [15] 16.6% | viability, T/C [19] 61.8% | viability, T/C [20] 44% | viability, T/C [21] 19.3% | viability, T/C [22] 12.1% | viability, T/C [25] 57.6% | viability, T/C [26] 35% | viability, T/C [27] 17.2% | viability, T/C [28] 9.84% | viability, T/C [31] 64.1% | viability, T/C [32] 38.7% | viability, T/C [33] 13.5% | viability, T/C [34] 11.5% | viability, T/C [35] 10.8% | viability, T/C [36] 8.33%
71.9 nM: IC50 (second compound 0.0316 µM)
active: viability, T/C [5] 11.5% | viability, T/C [6] 7.63% | viability, T/C [10] 8.96% | viability, T/C [11] 12% | viability, T/C [12] 8.29% | viability, T/C [16] 8.98% | viability, T/C [17] 11.9% | viability, T/C [18] 8.2% | viability, T/C [23] 10.7% | viability, T/C [24] 8.42% | viability, T/C [29] 11.1% | viability, T/C [30] 8.07%

CC1COCCN1c1cc(-c2ccnn2C)c2ccnc(-c3ccn[nH]3)c2n1 (centres undefined) + CN(C)c1ccc(Nc2c3ccc(NC(=O)CCN4CCCC4)cc3nc3cc(NC(=O)CCN4CCCC4)ccc23)cc1
117 nM: IC50 (second compound 0.1 µM)
89.8 nM: IC50 (second compound 1 µM)
active: viability, T/C [12] 8.57% | viability, T/C [17] 9.46% | viability, T/C [18] 10.1% | viability, T/C [24] 9.79% | viability, T/C [36] 9.08%
111 nM: IC50 (second compound 0.316 µM)
inactive: viability, T/C [1] 83.6% | viability, T/C [2] 47.7% | viability, T/C [3] 17% | viability, T/C [4] 11.2% | viability, T/C [5] 10.4% | viability, T/C [6] 11.1% | viability, T/C [7] 84.2% | viability, T/C [8] 54.9% | viability, T/C [9] 18.7% | viability, T/C [10] 11.8% | viability, T/C [11] 10.7% | viability, T/C [13] 81.2% | viability, T/C [14] 52.9% | viability, T/C [15] 20.2% | viability, T/C [16] 10.3% | viability, T/C [19] 87.5% | viability, T/C [20] 45.9% | viability, T/C [21] 23.8% | viability, T/C [22] 12.3% | viability, T/C [23] 11.4% | viability, T/C [25] 64.7% | viability, T/C [26] 43.5% | viability, T/C [27] 17.4% | viability, T/C [28] 12.6% | viability, T/C [29] 10.6% | viability, T/C [30] 11.3% | viability, T/C [31] 61.1% | viability, T/C [32] 39.8% | viability, T/C [33] 23.9% | viability, T/C [34] 13.3% | viability, T/C [35] 11.4%
58 nM: IC50 (second compound 10 µM)
92.9 nM: IC50 (second compound 0.0316 µM)
70.2 nM: IC50 (second compound 3.16 µM)
